Publication PMC3497310, “Binding of the Phage Display Derived Peptide CaIX-P1 on Human Colorectal Carcinoma Cells Correlates with the Expression of Carbonic Anhydrase IX” (International Journal of Molecular Sciences, 2012)
Where no end group is shown, it is not given here.

Key:
[1] = test system: HCT116 cells; assay: Fluorescence microscopy of cell labeling; assay type: cell-based, human; settings: HCT116 cells grown to high density; 1 h at 37 °C; medium without FCS; 100 μL of 10^-4-10^-5 M stock in 1 mL; after fixation
Experimental: Human colorectal carcinoma HCT116 cells were seeded in culture plates (1,000,000–2,000,000 cells/well in 3 mL medium) containing glass coverslips and were allowed to grow for 48 h. The medium was replaced by 900 μL fresh medium (without FCS) and 100 μL 10^−4–10^−5 M sterilized stock solution of FITC-labeled-CaIX-P1 or fluorescein at the same concentration was added to the cells. The plates were incubated for 1 h at 37 °C. After incubation the cells were washed thrice with 1 mL ice cold PBS (pH 7.4). Subsequently the cells were fixed with 2% formaldehyde in PBS (pH 7.4) at […] for 20 min. This procedure was performed on ice. The cells were washed with ice cold PBS (1 × 600 μL, pH 7.4) and the cover slips were mounted on a slice with DAKO fluorescent medium. Cells were photographed using a Leica DM-RA2 fluorescence microscope. Digitalized figures were processed using standard imaging software (Adobe Photoshop 6.0/Illustrator 9.0).

[2] = test system: HCT116 cells; assay type: binding, human; settings: 48 h
Experimental: (§1) 300,000 and 2,000,000 human colorectal carcinoma HCT116 and pancreatic carcinoma BxPC3 cells were cultivated in 6-well plates for 48 h. RPMI 1640 medium with 1% BSA was used for cell blocking. Thereafter, 1 mL RPMI 1640 medium containing about 1.0 × 10^6 cpm ^125I-labeled peptide (specific activity ~50 GBq/μmol) was added and cell incubation was carried out for various time periods (10-120 min). To characterize the specificity of radioligand binding, co-incubation with unlabeled CaIX-P1 at various concentrations (10^-4 to 10^-9 mol/L) was performed. After incubation the cells were washed with ice cold PBS and lysed with 0.5 mL NaOH 0.3 mol/L. The lysate was collected and the radioactivity was measured with a γ-counter ([…]; Berthold Technologies). Bound radioactivity, representing the amount of peptide accumulation on HCT116 cells, was calculated as percentage applied dose per 10^6 cells. Binding specificity was further determined using octreotide, HBP-1 and VA131 as negative control competitors at the same concentration as CaIX-P1. All binding and competition experiments were performed in serum free medium in order to avoid peptide degradation by serum proteases.

[3] = serum stability; rapid degradation by serum proteases; cited from earlier work
[4] = test system: BxPC3 cells; assay: In vitro binding kinetics of 125I-CaIX-P1 at two cell densities (negative control cells); parameters: species or system human; settings: 300,000 vs 2,000,000 cells cultivated 48 h, incubation 10-120 min, serum free medium
Experimental: as §1

[5] = test system: HCT116 cells; assay: In vitro binding kinetics of 125I-CaIX-P1 at two cell densities; parameters: species or system human; settings: 300,000 vs 2,000,000 cells cultivated 48 h; incubation 10-120 min; serum free medium; uptake as percent applied dose per 10^6 cells; p < 0.05
Experimental: as §1

O=C1OC2(c3ccc(O)cc3Oc3cc(O)ccc32)c2ccccc21 [fluorescein]
fluorescence signal of cells [1]: strongly decreased signal to the background level

YNTNHVPLSPKY [CaIX-P1]
IC50 [2]: 1000 to 5000 nM
half-life in serum [3]: about 25 min

YNTNHVPLSPKY [^125I-CaIX-P1, CaIX-P1 radiolabeled with 125I using the chloramine T method]
binding of 125I-CaIX-P1 on BxPC3 cells at different cell densities [4]: strongly decreased binding to the background level
binding of 125I-CaIX-P1 per 10^6 HCT116 cells with increasing cell density [5]: significantly increased binding
